# Where “and” joins values, the source holds several entries; their conditions need not be identical. Identical values can stand only once.
# Columns and labels:
# [1] = tested on: patients with, or at risk for coronary artery disease and scheduled for elective noncardiac surgery; experiment: Randomized, blinded, placebo-controlled trial: mortality and cardiovascular outcomes over two years following noncardiac surgery; format: in vivo
# From the text: Eligible patients included those with, or at risk for coronary artery disease and scheduled for elective noncardiac surgery requiring general anesthesia at the San Francisco Veterans Affairs Medical Center. The specific inclusion and exclusion criteria have been described previously (Mangano et al., 1990, N. Eng. J. Med. 323:1781-1788; Mangano et al., 1992, JAMA 268:233-239).
# (§1) Patients were randomized to receive either atenolol “TENORMIN” (Zeneca Pharmaceuticals) or placebo prior to induction of anesthesia, immediately following surgery, and daily throughout their hospitalization (up to 7 days). Drug assignment, study physicians, treating clinicians, and data analysis personnel were blinded to study group throughout all phases of this trial.
# (§2) Intravenous preparation consisted of two-10-ml syringes, each containing 5 mg atenolol or placebo; oral preparation consisted of two 50 mg tablets of atenolol, or two placebo tablets. Approximately one hour prior to surgery, patients entered the preoperative area and blood pressure was recorded with an automated cuff and 5-lead continuous electrocardiograph. Thirty-minutes prior to entry into the operating room, intravenous administration of study drug began. Exclusion criteria for study drug administration were heart rate <55 bpm, systolic blood pressure <100 mm Hg, or evidence of congestive heart failure, third degree heart block, or bronchospasm (ISIS-I protocol, 1986, Lancet 2:56-66). […] Immediately following surgery, the study drug was again given using the identical technique applied prior to surgery. On the morning of the first postoperative day, and daily thereafter until the patient was discharged from the hospital (up to a maximum of seven days), patients received study drug every 12 hours using the same technique for intravenous infusion, or orally (if able) at which time a tablet of atenolol (0, 50 or 100 mg) or placebo was given daily. If heart rate was >65 bpm and systolic blood pressure >100 mm Hg, 100 mg atenolol (or placebo) was given orally; if heart rate was >55 but <65 bpm and systolic blood pressure >100 mm Hg, 50 mg atenolol (or placebo) was administered; if heart rate was <55 bpm or systolic blood pressure <100 mm Hg, 0 mg atenolol (or placebo) was given. No treating clinician was allowed to observe study drug administration either prior to, or after, surgery.
# (§3) All patients received general anesthesia with endotracheal intubation; preoperative medications were continued until the time of surgery, with beta-blockers replaced by study drug on the morning of surgery. There were no other protocol-based restrictions of anesthetic or surgical technique, and clinical decisions were not controlled by study protocol. Perioperative information was recorded and analyzed for possible confounding effects, and included: type and duration of surgery, anesthetic techniques, fluid and blood loss and replacement, cardiovascular medications, hemodynamics, electrocardiographic data, and adverse events.
# At six months, one year and two years following surgery, study physicians conducted scheduled research study visits that were independent of usual clinical care.
# [2] = tested on: patients with, or at risk for coronary artery disease and scheduled for elective noncardiac surgery; experiment: Same trial: in-hospital tolerance, hemodynamics and in-hospital deaths during study drug administration
# Description: as §1, §2, §3
# At six months, one year and two years following surgery, study physicians conducted scheduled research study visits that were independent of usual clinical care. Data collected during each visit included history and physical examination, a 12-lead electrocardiogram, and review of all medical records, medications and hospital admissions. Cardiac death was diagnosed if the patient died of either a myocardial infarction, dysrhythmia or congestive heart failure caused primarily by a cardiac condition.
# [3] = long-term deaths, one line per patient of the atenolol group
compound,measurement,setting,value
CC(C)NCC(O)COc1ccc(CC(N)=O)cc1 (stereo not drawn) [atenolol],"HAZARDS RATIO, two-year mortality, multivariate models","[1]; Cox multivariate, 30 deaths among 200 patients",0.5
same,"HAZARDS RATIO, two-year mortality, univariable models","[1]; Cox univariable, 30 deaths among 200 patients",0.4
same,"hazard ratio, survival in diabetics at two years","[1]; diabetics, two years, P=0.03",0.25
same,improvement of survival in diabetics at two years,"[1]; diabetics, two years, P=0.03",approximately 75%
same,deaths over the first 6-8 months,"[1]; first 6-8 months, noncardiac, placebo 10 deaths with 7 cardiac-related, P<0.001",one
same,CAUSE OF DEATH,[1]; [3],"Respiratory failure and Ventricular tachycardia and Severe CAD, sepsis and Sepsis, ALS and Metastatic renal CA and CHF post CABG and ARDS and Cardiac arrest, lung CA and Metastatic squamous cell CA, larynx, lung"
same,TIME TO DEATH,[1]; [3],237 days and 295 days and 327 days and 385 days and 416 days and 481 days and 529 days and 582 days and 656 days
same,decrease in the rate of cardiac events within one year,"[1]; one year, versus placebo",3 fold
same,cardiac events within one year following surgery,"[1]; one year, placebo 22 patients, P=0.003",7 patients
same,time-to-first adverse event,[1]; placebo group 6 days,158 days
same,time to first death,[1]; placebo group 19 days,237 days
same,cardiac events within six months following surgery,"[1]; six months, placebo 12 patients, P<0.001",0 patients
same,cardiovascular event-free survival of patients (FIG. 2),[1]; two years after surgery,increases cardiovascular event-free survival of patients for two years after surgery
same,survival of patients (FIG. 1),[1]; two years after surgery,increases the survival of patients for two years after surgery
same,decrease in the rate of cardiac events within two years,"[1]; two years, versus placebo",2 fold
same,reduction in all-cause mortality,"[1]; two years, versus placebo, P=0.019",57%
same,reduction in cardiac mortality,"[1]; two years, versus placebo, P=0.033",67%
same,cardiac-related deaths over the two-year outcome period,"[1]; two years, placebo 12 cardiac",4 deaths
same,deaths (all-cause) over the two-year outcome period,"[1]; two years, placebo 21 deaths, P=0.019",9 deaths
same,cardiac events within two years following surgery,"[1]; two years, placebo 32 patients, P=0.008",16 patients
same,noncardiac deaths secondary to metastatic cancer during hospitalization,[2]; during hospitalization,two
same,noncardiac deaths with pulmonary failure secondary to massive infusion for fluid loss during hospitalization,[2]; during hospitalization,one
same,cardiac deaths secondary to myocardial infarction during hospitalization,"[2]; during hospitalization, placebo two",one
same,average heart rate during treatment,"[2]; during treatment, placebo 87 bpm, P<0.001",75 bpm
same,maximum heart rate during treatment,"[2]; during treatment, placebo 130 bpm, P<0.001",113 bpm
same,patients tolerating the full dose,"[2]; human, in vivo",more than 60%
same,patients who tolerated administration,"[2]; human, in vivo",More than 85%
same,patients with 20% or more decrease in systolic blood pressure or heart rate,"[2]; human, in vivo, iv",approximately 10%
same,"patients who developed systolic blood pressure <90 mm Hg or heart rate <40 bpm, or required therapy","[2]; in vivo, iv",no patient
same,"incidence of hypotension or bradycardia, or other events","[2]; in vivo, po",not associated with an increased incidence
